Results as given in PMC5491903, “The Selective Phosphoinoside-3-Kinase p110δ Inhibitor IPI-3063 Potently Suppresses B Cell Survival, Proliferation, and Differentiation” (Frontiers in Immunology, 2017).

Key:
p110γ [1] = target: p110γ (Mus musculus, UniProt Q9JHG7); experiment: isoform-specific cell-based assay, pAKT S473 ELISA; set-up: endogenous in cells; host or cells: Raw264.7; settings: read-out: Cellular IC50
Description: (§1) Phospho-Akt1 (S473) sandwich ELISA antibody kit (Cell Signaling Technology, cat. no. 7143) was utilized to analyze pAKT signal in cells as described previously by Winkler et al. ([11]) (for data see Table 2). Briefly, SKOV3 and 786.0 cells were seeded into 96-well cell culture-graded plates at a density of […] per 200 µl culture media per well. Raji and Raw264.7 were seeded at the same density in FBS-free media. After overnight incubation at 5% CO2 and 37°C, the cells were treated with inhibitor for 30 min. Raji cells were stimulated with 10 µg/mL anti-human IgM (Jackson ImmunoResearch) for 30 min and Raw264.7 cells with 25 nM C5a (RnD Systems) for 3 min in the presence of inhibitor. SKOV3 and 786.0 cells were not stimulated. Medium was then aspirated and 50 µL/well of ice-cold lysis buffer was added. pAKT level was determined according to the manufacturer’s instruction.

p110β [2] = target: T1, p110β (Homo sapiens, UniProt P42338); experiment: PI3K enzymatic assay (ADP-Glo) with purified enzymes; set-up: heterodimers consisting of full length p110α, p110β, or p110δ catalytic subunit and the p85α regulatory subunit; purchased Millipore 14-603-K; settings: purified enzyme, mean ± spread (n), read-out: Biochemical IC50
T1 sequence (P42338 whole entry): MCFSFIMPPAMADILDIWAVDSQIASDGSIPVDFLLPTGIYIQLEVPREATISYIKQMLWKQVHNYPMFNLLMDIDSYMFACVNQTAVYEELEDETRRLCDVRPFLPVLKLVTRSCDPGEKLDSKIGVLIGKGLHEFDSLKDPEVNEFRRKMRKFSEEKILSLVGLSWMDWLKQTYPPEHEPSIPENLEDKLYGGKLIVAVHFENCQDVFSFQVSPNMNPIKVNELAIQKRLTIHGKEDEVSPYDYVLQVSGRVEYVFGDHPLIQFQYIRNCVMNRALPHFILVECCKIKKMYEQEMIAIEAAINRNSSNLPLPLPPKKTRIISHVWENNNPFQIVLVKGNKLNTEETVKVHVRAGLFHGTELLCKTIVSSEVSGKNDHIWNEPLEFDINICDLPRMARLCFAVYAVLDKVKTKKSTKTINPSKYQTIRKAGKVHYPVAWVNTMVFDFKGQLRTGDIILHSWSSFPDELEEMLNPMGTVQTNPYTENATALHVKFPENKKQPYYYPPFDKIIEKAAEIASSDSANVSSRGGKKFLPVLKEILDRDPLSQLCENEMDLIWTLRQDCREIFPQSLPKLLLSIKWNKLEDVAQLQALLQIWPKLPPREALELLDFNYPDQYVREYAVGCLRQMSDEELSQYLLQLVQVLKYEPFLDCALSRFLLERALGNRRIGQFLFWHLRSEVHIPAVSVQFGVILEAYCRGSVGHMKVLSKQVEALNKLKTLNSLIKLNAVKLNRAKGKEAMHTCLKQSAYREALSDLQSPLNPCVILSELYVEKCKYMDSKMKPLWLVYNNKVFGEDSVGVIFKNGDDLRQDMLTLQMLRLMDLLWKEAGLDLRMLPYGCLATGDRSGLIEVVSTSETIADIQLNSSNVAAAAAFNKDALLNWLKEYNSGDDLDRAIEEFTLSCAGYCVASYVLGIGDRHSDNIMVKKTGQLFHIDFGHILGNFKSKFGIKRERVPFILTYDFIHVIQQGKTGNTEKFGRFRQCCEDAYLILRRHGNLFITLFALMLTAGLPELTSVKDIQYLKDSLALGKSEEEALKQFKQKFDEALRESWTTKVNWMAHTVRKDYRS
T1 sequence (P27986 whole entry partner): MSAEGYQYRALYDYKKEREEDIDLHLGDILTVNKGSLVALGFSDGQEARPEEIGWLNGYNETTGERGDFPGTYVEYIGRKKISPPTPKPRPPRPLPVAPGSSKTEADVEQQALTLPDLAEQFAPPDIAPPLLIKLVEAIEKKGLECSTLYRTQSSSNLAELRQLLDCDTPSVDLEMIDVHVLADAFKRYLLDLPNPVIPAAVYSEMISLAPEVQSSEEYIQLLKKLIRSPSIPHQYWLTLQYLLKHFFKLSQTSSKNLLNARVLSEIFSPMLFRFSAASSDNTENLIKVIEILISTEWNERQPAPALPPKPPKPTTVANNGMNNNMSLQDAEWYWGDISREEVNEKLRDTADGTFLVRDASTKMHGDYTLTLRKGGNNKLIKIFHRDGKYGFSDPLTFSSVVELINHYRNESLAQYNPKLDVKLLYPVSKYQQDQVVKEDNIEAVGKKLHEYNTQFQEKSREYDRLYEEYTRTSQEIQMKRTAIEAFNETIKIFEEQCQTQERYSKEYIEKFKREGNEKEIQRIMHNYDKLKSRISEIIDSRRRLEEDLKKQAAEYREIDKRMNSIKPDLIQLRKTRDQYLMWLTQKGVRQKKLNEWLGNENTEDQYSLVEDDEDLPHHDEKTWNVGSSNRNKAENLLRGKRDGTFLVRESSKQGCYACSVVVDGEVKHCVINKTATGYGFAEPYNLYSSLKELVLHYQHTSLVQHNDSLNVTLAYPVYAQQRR
Description: (§2) Human recombinant PI3K-α (cat. no. 14-602-K), -β (cat. no. 14-603-K), -δ (cat. no. 14-604-K), and -γ (cat. no. 14-558-K) were purchased from Millipore. Phosphatidylinositol 4,5 bis phosphate (diC8-PtdIns(4,5)P2) was purchased from Avanti Polar Lipids, Inc. PI3K-α, β, and δ are heterodimers consisting of full length p110α, p110β, or p110δ catalytic subunit and the p85α regulatory subunit. PI3K-γ is a monomer of the p110γ catalytic subunit. Samples of kinase (10 nM—α, β, and δ; 20 nM—γ) were incubated with inhibitor for 30 min at room temperature in reaction buffer (15 mM HEPES pH 7.4, 20 mM NaCl, 1 mM EGTA, 0.02% Tween 20, 10 mM MgCl2, 0.2 mg/mL bovine-γ-globulins) followed by addition of ATP/diC8-PtdIns(4,5)P2 mixture to give final concentrations of 3 mM ATP and 500 µM diC8-PtdIns(4,5)P2. Reactions were incubated at room temperature for 2 h, with PI3K activity assessed via the Promega ADP-Glo Max assay kit (cat. no. V7002) according to the manufacturer’s instruction. Plates were read on Envision plate reader in luminescence mode.

p110β [3] = target: T1, p110β; experiment: isoform-specific cell-based assay, pAKT S473 ELISA; set-up: endogenous in cells; host or cells: 786.0; settings: read-out: Cellular IC50
Description: as §1

p110γ [4] = target: T2, p110γ (Homo sapiens, UniProt P48736); experiment: PI3K enzymatic assay (ADP-Glo) with purified enzymes; settings: purified enzyme, mean ± spread (n), read-out: Biochemical IC50
T2 construct: purchased Millipore 14-558-K
T2 sequence (P48736 whole entry): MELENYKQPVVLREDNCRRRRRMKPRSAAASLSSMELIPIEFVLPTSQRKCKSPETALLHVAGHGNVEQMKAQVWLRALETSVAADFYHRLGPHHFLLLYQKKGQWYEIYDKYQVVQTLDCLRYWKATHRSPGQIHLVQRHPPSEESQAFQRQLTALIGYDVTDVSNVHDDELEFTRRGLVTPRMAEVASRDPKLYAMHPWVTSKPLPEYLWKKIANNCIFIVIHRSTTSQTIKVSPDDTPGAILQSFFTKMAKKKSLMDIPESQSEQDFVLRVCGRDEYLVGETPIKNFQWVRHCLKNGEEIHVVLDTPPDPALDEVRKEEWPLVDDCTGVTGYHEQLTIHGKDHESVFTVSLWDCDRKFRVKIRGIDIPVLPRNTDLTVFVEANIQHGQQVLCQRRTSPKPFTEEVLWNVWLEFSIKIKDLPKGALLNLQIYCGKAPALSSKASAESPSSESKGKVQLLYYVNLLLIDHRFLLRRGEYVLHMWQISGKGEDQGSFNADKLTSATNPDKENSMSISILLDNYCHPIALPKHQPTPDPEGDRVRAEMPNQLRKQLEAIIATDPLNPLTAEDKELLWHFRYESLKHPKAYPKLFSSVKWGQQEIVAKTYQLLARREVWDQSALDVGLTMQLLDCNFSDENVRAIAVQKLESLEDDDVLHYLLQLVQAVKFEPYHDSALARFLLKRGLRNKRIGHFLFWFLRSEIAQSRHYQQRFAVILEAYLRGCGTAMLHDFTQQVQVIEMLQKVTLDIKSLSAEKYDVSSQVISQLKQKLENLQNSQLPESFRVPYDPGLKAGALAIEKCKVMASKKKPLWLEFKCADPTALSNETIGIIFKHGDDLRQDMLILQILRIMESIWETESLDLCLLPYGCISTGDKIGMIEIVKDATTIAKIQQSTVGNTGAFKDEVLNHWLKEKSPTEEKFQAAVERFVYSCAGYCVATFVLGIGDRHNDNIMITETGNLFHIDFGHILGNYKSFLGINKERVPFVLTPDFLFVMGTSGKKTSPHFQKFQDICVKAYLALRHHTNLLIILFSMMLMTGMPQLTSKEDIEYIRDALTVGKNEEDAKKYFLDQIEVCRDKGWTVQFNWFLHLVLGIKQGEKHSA
Description: as §2

p110δ = target: T3, p110δ (Homo sapiens, UniProt O00329); experiment: as above; settings: purified enzyme, mean ± spread (n), read-out: Biochemical IC50
T3 construct: heterodimers consisting of full length p110α, p110β, or p110δ catalytic subunit and the p85α regulatory subunit; purchased Millipore 14-604-K
T3 sequence (O00329 whole entry): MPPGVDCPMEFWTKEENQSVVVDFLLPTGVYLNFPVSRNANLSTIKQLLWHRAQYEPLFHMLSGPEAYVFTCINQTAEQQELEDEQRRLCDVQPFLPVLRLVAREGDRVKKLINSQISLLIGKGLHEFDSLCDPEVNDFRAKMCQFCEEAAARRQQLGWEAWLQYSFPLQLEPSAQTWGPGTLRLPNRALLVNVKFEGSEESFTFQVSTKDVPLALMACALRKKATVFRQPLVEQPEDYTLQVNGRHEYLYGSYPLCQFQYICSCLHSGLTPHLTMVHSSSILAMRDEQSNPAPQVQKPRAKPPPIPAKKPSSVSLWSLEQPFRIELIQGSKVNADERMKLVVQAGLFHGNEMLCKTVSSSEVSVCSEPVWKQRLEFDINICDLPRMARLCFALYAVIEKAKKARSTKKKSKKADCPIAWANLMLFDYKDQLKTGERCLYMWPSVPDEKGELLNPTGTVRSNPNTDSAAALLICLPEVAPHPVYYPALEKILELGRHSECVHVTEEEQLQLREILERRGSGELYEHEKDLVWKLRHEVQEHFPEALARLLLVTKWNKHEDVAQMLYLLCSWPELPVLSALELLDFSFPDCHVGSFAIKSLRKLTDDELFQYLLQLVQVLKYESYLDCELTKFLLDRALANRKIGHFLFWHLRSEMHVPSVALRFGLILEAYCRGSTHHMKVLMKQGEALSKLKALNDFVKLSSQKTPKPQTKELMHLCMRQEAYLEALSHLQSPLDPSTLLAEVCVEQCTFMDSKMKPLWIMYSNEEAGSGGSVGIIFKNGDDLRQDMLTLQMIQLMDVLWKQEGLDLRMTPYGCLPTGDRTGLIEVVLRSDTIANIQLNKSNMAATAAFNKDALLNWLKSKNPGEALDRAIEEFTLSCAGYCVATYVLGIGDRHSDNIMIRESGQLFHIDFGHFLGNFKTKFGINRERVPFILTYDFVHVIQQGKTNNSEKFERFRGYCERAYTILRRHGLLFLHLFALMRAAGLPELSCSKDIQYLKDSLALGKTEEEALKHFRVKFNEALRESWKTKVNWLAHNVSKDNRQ
T3 sequence (P27986 whole entry partner): as the sequence (P27986 whole entry partner) above
Description: as §2

p110α = target: T4, p110α (Homo sapiens, UniProt P42336); experiment: as above; settings: purified enzyme, mean ± spread (n), read-out: Biochemical IC50
T4 construct: heterodimers consisting of full length p110α, p110β, or p110δ catalytic subunit and the p85α regulatory subunit; purchased Millipore 14-602-K
Description: as §2

p110γ (Mus musculus, UniProt Q9JHG7), sequence (Q9JHG7 whole entry, canonical isoform): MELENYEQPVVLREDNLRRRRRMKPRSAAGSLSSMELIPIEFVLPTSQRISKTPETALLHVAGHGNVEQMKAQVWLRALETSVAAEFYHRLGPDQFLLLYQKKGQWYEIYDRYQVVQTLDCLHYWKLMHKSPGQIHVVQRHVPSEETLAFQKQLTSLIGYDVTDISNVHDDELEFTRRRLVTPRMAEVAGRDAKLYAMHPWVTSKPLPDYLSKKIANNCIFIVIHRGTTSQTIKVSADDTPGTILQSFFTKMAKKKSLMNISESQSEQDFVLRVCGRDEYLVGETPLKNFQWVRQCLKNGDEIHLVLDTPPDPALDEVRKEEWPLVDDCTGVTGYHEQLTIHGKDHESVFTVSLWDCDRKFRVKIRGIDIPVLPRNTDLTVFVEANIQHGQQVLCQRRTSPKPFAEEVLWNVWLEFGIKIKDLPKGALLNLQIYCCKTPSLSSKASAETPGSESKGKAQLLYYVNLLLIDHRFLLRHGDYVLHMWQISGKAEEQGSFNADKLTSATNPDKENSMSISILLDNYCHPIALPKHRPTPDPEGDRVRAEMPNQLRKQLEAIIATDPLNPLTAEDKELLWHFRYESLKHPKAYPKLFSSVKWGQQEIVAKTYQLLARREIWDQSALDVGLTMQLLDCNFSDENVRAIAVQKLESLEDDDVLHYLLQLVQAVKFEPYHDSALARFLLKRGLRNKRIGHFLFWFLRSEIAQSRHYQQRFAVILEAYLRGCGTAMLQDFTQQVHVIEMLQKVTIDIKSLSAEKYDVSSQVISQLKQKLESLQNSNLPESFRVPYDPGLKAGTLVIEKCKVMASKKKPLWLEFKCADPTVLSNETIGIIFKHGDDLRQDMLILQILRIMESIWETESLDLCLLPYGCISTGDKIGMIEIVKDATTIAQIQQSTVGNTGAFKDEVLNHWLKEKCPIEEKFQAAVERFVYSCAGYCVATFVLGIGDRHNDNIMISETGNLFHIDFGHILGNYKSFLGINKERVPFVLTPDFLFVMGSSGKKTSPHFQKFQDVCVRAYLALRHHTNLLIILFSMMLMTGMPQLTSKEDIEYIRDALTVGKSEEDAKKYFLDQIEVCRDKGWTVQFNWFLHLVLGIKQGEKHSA

CC(C)n1c([C@H](C)Nc2ncnc(N)c2C#N)cc2cccc(-c3ccc(=O)n(C)c3)c2c1=O [IPI-3063]
IC50 (p110γ [1]): 419 ± 117 nM
IC50 (p110β [2]): 1510 nM
IC50 (p110β [3]): 103 ± 35.7 nM
IC50 (p110γ [4]): 2190 nM
IC50 (p110δ): 2.5 ± 1.2 nM
IC50 (p110α): 1170 nM
